Measurements published in patent US20230321123A1, “INHIBITORS OF PSEUDOMONAS AERUGINOSA VIRULENCE FACTOR LasB” (Helmholtz-Zentrum Für Infektionsforschung GmbH, priority 2020, published 2023).

Experiments:
MMP-7 = biological target: T1, MMP-7 (Homo sapiens, UniProt P09237); assay: Selectivity against human off-targets: MMP-7; assay type: biochemical; details: read-out: Inhibition [%] MMP-7
T1 sequence (P09237 95-267): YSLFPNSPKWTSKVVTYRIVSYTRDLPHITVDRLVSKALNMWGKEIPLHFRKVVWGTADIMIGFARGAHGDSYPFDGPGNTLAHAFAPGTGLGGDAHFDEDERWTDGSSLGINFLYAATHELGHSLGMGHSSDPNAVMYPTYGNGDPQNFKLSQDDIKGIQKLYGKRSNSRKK
Description: (§1) The inhibition of zinc-containing human enzymes is described frequently for LasB inhibitors and poses a serious difficulty in the development of selective compounds. Particularly, the inhibition of matrix metalloproteases (MMPs) should be avoided. To further investigate this issue, three derivatives (the compounds of examples 1, 5 and 8) have been tested for their selectivity against several human off-targets, including six MMPs, ADAM17 (TACE), HDAC-3 and HDAC-8 (Table 4). The selectivity of the compounds is particularly high for MMPs and HDACs, whereas the inhibition of ADAM17 was considerably stronger.

MMP-14 = MMP-14 (Homo sapiens, UniProt P50281); assay: Selectivity against human off-targets: MMP-14; assay type: biochemical; details: read-out: Inhibition [%] MMP-14
Description: as §1

ADAM17 (TACE) = ADAM17 (TACE) (Homo sapiens, UniProt P78536); assay: Selectivity against human off-targets: ADAM17 (TACE); assay type: biochemical; details: read-out: IC50 ADAM17 (TACE)
ADAM17 (TACE), sequence (P78536 215-824): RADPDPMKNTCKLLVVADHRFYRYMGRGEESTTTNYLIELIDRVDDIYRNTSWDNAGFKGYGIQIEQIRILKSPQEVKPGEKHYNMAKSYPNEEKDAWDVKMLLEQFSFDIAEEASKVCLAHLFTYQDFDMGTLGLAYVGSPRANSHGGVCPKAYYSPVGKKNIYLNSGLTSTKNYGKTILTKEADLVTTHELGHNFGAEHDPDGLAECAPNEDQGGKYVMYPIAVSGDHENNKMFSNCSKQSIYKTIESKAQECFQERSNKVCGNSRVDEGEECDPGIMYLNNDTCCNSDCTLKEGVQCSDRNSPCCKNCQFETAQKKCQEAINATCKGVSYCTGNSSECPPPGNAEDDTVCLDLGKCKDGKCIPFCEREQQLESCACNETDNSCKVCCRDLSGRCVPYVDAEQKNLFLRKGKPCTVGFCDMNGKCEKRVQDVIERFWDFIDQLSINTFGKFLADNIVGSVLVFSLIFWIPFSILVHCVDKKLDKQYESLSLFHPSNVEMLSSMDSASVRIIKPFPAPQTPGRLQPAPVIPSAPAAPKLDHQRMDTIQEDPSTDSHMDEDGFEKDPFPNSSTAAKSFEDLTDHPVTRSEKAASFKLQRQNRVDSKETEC

HDAC-3 = HDAC-3 (Homo sapiens, UniProt O15379); assay: Selectivity against human off-targets: HDAC-3; assay type: biochemical; details: read-out: IC50 HDAC-3
HDAC-3, sequence (O15379 whole entry): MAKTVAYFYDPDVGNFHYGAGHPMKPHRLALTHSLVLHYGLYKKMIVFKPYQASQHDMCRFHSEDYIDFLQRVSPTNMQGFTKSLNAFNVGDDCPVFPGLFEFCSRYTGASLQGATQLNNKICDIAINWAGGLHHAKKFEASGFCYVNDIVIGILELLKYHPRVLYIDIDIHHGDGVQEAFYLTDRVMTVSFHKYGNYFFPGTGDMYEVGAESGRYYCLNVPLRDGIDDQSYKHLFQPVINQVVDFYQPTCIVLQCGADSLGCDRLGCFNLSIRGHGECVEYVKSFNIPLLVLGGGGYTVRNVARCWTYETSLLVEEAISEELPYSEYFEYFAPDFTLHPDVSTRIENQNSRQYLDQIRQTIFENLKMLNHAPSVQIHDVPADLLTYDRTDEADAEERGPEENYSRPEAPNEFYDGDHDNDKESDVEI
HDAC-3, sequence (Q9Y618 395-489 partner limits assumed): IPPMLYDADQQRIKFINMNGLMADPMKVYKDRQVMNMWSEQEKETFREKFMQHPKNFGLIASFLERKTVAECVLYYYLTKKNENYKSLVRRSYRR
Description: as §1

hERG potassium channel = hERG potassium channel (Homo sapiens, UniProt Q12809); assay: hERG inhibition; assay type: biochemical
hERG potassium channel, sequence (Q12809 whole entry): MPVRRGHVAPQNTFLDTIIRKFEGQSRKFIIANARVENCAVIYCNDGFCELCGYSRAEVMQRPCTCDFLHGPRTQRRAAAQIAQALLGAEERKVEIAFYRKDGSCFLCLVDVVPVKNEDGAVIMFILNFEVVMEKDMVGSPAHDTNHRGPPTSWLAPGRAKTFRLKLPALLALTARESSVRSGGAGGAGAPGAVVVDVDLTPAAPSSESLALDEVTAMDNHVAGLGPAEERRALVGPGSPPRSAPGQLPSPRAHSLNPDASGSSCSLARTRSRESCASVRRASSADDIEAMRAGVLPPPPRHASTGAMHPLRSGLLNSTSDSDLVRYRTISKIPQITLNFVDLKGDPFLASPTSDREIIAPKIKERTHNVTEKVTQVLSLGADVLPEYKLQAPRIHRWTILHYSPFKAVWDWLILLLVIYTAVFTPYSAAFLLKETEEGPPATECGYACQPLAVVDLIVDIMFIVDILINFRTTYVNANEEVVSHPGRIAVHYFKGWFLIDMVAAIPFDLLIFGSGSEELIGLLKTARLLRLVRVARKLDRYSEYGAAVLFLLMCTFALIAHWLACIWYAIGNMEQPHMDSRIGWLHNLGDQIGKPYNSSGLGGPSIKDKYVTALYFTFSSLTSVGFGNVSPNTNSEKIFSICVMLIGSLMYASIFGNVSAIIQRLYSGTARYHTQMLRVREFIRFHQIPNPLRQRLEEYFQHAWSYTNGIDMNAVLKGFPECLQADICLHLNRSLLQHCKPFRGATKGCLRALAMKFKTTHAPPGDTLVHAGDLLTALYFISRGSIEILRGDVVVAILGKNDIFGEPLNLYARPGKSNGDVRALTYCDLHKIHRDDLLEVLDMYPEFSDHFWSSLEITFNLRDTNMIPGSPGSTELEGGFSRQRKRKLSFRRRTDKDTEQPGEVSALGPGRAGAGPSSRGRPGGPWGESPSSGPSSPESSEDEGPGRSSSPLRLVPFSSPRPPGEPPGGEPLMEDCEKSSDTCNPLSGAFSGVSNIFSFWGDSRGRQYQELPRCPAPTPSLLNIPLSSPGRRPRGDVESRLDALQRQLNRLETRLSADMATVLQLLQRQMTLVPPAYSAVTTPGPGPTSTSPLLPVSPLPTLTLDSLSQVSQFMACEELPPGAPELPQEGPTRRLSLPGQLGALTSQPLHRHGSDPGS
Description: (§2) As the compound of example 2 has shown an impressive activity in the in vitro LasB inhibition assay, high selectivity over a broad spectrum of human enzymes and no signs of cytotoxicity in vitro, it has been subjected to a more advanced safety screening (Table 9).

CYP1A = biological target: T2, CYP1A (Homo sapiens, UniProt P05177); assay: CYP inhibition CYP1A; assay type: in vitro ADME
T2 sequence (P05177 2-516): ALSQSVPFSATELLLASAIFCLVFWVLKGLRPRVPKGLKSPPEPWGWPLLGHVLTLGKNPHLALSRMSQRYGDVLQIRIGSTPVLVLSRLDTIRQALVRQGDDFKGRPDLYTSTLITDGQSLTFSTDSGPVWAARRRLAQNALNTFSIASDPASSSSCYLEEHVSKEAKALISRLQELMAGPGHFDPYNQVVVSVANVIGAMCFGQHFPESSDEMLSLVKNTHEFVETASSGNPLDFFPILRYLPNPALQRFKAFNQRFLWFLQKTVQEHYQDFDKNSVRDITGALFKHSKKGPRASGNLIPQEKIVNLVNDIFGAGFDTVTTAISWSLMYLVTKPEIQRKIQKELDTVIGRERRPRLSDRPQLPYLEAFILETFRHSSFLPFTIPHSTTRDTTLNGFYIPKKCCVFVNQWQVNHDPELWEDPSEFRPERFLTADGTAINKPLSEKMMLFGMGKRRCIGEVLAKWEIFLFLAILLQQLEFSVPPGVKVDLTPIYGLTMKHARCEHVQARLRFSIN
Description: as §2

CYP2C9 = CYP2C9 (Homo sapiens, UniProt P11712); assay: CYP inhibition CYP2C9; assay type: in vitro ADME
CYP2C9, sequence (P11712 whole entry): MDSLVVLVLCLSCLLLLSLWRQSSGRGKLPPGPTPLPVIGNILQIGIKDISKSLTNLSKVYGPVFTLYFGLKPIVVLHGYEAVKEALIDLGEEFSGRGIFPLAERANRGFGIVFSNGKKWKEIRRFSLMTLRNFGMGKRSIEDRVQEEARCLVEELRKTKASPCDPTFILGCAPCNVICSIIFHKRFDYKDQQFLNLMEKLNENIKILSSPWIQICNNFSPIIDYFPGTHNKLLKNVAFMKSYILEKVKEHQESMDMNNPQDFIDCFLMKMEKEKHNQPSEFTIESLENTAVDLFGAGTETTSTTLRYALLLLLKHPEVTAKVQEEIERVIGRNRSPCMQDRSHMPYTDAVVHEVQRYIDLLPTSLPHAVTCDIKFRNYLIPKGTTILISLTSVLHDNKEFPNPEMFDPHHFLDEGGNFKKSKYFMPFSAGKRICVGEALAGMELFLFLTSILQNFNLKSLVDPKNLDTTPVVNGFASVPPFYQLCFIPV
Description: as §2

`Cc1ccc(NC(=O)C(S)CC(C)C)cc1` (stereo not shown) [Example 2, 2-Mercapto-4-methyl-N-(p-tolyl)pentanamide] was tested, and the inhibition at 100 µM (MMP-7) was < 10%, the inhibition at 100 µM (MMP-14) was < 10% and the IC50 (ADAM17 (TACE)) was 4.5 ± 1.8 µM. The IC50 (HDAC-3) was > 100 µM, the IC50 (hERG potassium channel) was > 10 µM and the IC50 (CYP1A) was > 25 µM. The IC50 (CYP2C9) was > 25 µM.
